Test results reported in patent publication US20220372040A1, “METTL3 MODULATORS” (Accent Therapeutics, Inc., priority 2020, published 2022).
Read-outs that look alike come from different tables or passages of the source.

How the values were obtained:
METTL3/METTL14 = METTL3/METTL14 (Homo sapiens, UniProt Q86U44); assay: METTL3-14 standard enzyme assay (3H-SAM flashplate scintillation); assay type: biochemical; settings: METTL3/METTL14 2.5 nM, RNA 100 nM, 3H-SAM 100 nM, 30 min
Procedure, shortened: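 Radiometric methylation readout: biotinylated RNA substrate UCUGGACUAAA and 3H-SAM, each 100 nM final, reacted 30 min at ambient temperature with 2.5 nM enzyme complex after 5 min compound preincubation (HEPES pH 7.5 buffer, KCl, MgCl2, DTT). Excess unlabelled SAM (15 μM) stopped reactions before streptavidin flashplate capture.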

PRMT5-MEP50 = PRMT5-MEP50 (Homo sapiens, UniProt O14744); assay: PRMT5 assay (3H-SAM flashplate scintillation); assay type: biochemical; settings: PRMT5-MEP50 2.5 nM, histone H4 peptide 100 nM, 3H-SAM 250 nM, 60 min
PRMT5-MEP50, sequence (O14744 whole entry): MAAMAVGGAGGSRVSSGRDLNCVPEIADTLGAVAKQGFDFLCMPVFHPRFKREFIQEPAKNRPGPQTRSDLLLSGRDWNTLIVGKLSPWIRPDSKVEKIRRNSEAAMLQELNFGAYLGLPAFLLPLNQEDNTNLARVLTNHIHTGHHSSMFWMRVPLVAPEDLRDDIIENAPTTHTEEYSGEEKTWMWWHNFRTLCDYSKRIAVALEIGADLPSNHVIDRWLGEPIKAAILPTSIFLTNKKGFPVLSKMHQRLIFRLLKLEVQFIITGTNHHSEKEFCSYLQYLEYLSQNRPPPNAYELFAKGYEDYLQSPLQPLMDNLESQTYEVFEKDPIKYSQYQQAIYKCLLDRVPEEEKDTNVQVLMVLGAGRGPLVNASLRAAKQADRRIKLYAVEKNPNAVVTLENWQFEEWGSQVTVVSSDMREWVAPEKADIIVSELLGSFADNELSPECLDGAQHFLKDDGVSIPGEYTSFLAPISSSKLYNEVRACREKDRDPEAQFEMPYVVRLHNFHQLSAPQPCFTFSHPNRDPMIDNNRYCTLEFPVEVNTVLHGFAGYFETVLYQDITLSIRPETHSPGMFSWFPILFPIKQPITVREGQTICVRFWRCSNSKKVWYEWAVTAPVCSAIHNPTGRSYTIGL
PRMT5-MEP50, sequence (Q9BQA1 whole entry partner): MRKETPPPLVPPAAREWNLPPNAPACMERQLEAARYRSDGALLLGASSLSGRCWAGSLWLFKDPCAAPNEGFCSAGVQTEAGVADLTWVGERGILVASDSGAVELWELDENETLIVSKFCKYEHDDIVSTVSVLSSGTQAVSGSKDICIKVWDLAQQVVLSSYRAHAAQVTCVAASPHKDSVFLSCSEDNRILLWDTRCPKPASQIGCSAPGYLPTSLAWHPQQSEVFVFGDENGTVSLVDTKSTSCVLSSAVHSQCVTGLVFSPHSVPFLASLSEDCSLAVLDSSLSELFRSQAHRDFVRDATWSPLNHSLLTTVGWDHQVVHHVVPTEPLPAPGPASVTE
Procedure, shortened: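 Radiometric methyltransferase read-out: after 60 min reaction, excess unlabelled SAM (15 μM) stops turnover and biotinylated H4 peptide (100 nM) carrying 3H-methyl from 250 nM 3H-SAM is captured on streptavidin flashplates (2 h, 25° C) for scintillation counting. Enzyme, 2.5 nM PRMT5-MEP50, was preincubated 5 min with compound in pH 8.0 Tris buffer with DTT and Tween.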

METTL1/WDR4 = METTL1/WDR4 (Homo sapiens, UniProt Q9UBP6); assay: METTL1 assay (3H-SAM flashplate scintillation); assay type: biochemical
METTL1/WDR4, sequence (Q9UBP6 whole entry, species assumed): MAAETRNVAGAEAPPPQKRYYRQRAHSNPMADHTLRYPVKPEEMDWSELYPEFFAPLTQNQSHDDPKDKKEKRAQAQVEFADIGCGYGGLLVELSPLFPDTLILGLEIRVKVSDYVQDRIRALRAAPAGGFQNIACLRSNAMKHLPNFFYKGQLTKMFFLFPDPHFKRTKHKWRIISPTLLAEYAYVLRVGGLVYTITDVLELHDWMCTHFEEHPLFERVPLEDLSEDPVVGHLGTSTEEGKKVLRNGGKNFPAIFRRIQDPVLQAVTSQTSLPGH
METTL1/WDR4, sequence (P57081 whole entry partner, species assumed): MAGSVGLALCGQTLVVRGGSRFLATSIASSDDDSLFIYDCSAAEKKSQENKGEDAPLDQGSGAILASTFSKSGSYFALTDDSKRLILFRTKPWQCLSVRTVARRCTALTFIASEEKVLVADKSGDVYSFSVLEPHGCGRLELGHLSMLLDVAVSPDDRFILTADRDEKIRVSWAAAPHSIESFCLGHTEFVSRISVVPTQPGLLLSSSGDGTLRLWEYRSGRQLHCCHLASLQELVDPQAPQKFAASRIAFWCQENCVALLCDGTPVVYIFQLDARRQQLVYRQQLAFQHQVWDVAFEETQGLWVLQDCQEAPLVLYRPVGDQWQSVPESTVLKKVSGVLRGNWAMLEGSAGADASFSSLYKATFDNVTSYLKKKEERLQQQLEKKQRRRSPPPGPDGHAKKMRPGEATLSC
Procedure, shortened: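 Radiometric methyltransfer by METTL1/WDR4 (6.25 nM f.c., 5 min preincubation) at ambient temperature in HEPES pH 7.5, KCl, MgCl2, DTT; started with 25 nM 3′-biotinylated RNA and 60 nM 3H-SAM, run 20 min, quenched with 15 μM cold SAM. Product captured on streptavidin flashplates (2 h, 25° C), counted by scintillation.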

MOLM-13 cells = assay: MOLM-13 96 Hour cell proliferation assay (Cell Titer-Glo); assay type: cell-based; settings: Homo sapiens
Procedure, shortened: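 MOLM-13 cells were seeded at 600 cells/well in RPMI 1640 with 10% FBS, then incubated overnight. Compounds were added at 0.25% DMSO final for 96 h at 37° C, with CellTiter-Glo luminescence read-out. Values normalized to staurosporine (100% death) and DMSO (0%); IC50 from 4-parameter logistic fit.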

[1] = METTL1/WDR4 6.25 nM, RNA 25 nM, 3H-SAM 60 nM, 20 min, read-out: METTL1 IC50

METTL3/METTL14, sequence (Q86U44 whole entry, species assumed): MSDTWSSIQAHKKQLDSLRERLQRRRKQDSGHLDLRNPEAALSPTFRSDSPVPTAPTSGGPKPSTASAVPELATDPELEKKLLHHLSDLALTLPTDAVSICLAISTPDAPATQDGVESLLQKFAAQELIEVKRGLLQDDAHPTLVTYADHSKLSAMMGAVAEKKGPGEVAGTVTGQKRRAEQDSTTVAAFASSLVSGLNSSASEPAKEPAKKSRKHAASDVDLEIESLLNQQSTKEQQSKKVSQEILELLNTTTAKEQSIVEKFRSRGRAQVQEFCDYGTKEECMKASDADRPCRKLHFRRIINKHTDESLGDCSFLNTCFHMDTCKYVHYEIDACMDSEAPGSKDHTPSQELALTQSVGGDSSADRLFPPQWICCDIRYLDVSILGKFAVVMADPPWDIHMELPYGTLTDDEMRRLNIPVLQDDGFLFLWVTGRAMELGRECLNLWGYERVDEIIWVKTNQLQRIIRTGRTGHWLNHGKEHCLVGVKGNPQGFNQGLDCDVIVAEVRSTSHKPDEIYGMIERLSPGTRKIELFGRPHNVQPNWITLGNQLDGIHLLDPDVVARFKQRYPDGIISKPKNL
METTL3/METTL14, sequence (Q9HCE5 whole entry partner, species assumed): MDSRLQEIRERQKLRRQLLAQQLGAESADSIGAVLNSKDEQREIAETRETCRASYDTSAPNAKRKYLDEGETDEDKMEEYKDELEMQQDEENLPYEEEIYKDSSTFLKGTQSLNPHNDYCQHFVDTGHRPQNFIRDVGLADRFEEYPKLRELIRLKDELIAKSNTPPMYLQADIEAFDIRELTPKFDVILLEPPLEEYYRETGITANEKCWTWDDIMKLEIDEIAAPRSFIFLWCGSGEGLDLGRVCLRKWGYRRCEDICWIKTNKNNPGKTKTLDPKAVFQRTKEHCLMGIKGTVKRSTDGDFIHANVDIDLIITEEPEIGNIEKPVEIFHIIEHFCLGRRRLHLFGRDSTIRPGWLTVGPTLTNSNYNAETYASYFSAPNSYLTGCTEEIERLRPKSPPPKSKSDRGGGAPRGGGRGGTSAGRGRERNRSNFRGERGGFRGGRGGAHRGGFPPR

| Structure (SMILES) | IC50 (METTL3/METTL14) | IC50 (PRMT5-MEP50) | IC50 (METTL1/WDR4; [1]) | IC50 (MOLM-13 cells) | IC50 (METTL1/WDR4) |
| --- | --- | --- | --- | --- | --- |
| CNc1ccc2ccc(OCc3cncc(-n4cc(CC5CC5)c5c(N)ncnc54)c3)cc2n1 [Compound I-29] | < 10 nM | > 1000 nM | > 1000 nM | – | – |
| CNc1ccc2ccc(CCc3cncc(-n4ccc5c(N)ncnc54)c3)cc2n1 [Compound I-30] | 10 to 100 nM | > 1000 nM | > 1000 nM | – | – |
| CNc1ccc2ccc(OCc3cc(CO)cc(-n4cc(Cl)c5c(N)ncnc54)c3)cc2n1 [Compound I-34] | < 10 nM | > 1000 nM | > 1000 nM | – | – |
| CNc1ccc2ccc(OCc3cncc(-n4cc(-c5ccnn5C)c5c(N)ncnc54)c3)cc2n1 [Compound I-35] | < 10 nM | > 1000 nM | > 1000 nM | – | – |
| CNc1ccc2ccc(OCc3cncc(-n4c(C)cc5c(N)ncnc54)c3)cc2n1 [Compound I-36] | 10 to 100 nM | > 1000 nM | > 1000 nM | – | – |
| CNc1ccc2ccc(OCc3cncc(-n4cc(C5CCCC5)c5c(N)ncnc54)c3)cc2n1 [Compound I-58] | < 10 nM | > 1000 nM | – | < 1000 nM | – |
| CCNc1ccc2ccc(OCc3cccc(-n4cc(Cl)c5c(N)ncnc54)c3)cc2n1 [Compound I-61] | 10 to 100 nM | > 1000 nM | > 1000 nM | 1000 to 10000 nM | – |
| CNc1ccc2cc(CCc3cccc(-n4cc(Cl)c5c(N)ncnc54)c3)ccc2n1 [Compound I-70] | 100 to 1000 nM | > 1000 nM | > 1000 nM | 1000 to 10000 nM | – |
| CNc1ccc2ccc(OCc3cncc(-n4cc(Cl)c5c(N)ncnc54)c3)cc2n1 [Compound I-74, 7-((5-(4-amino-5-chloro-7H-pyrrolo[2,3-d]pyrimidin-7-yl)pyridin-3-yl)methoxy)-N-methylquinolin-2-amine] | < 10 nM | > 1000 nM | > 1000 nM | 1000 to 10000 nM | – |
| CNc1ccc2ccc(OCc3cc(Br)cc(-n4cc(Cl)c5c(N)ncnc54)c3)cc2n1 [Compound I-75] | 100 to 1000 nM | > 1000 nM | > 1000 nM | 1000 to 10000 nM | – |
| CNc1ccc2ccc(OCc3cccc(-n4cc(Cl)c5c(N)ncnc54)c3)cc2n1 [Compound I-87] | 10 to 100 nM | > 1000 nM | > 1000 nM | 1000 to 10000 nM | – |
| Nc1nc2cc(OCc3cncc(-n4ccc5c(N)ncnc54)c3)ccc2cc1Br [Compound I-111] | > 1000 nM | > 1000 nM | > 1000 nM | ≥ 10000 nM | – |
| CNc1ccc2ccc(OCc3cncc(-n4cc([C@H]5CCCO5)c5c(N)ncnc54)c3)cc2n1 [Compound I-112] | < 10 nM | > 1000 nM | – | < 1000 nM | > 1000 nM |
| CNc1ccc2ccc(OCc3cncc(-n4cc([C@@H]5CCCO5)c5c(N)ncnc54)c3)cc2n1 [Compound I-113] | < 10 nM | > 1000 nM | – | 1000 to 10000 nM | > 1000 nM |
| Cn1ccc(-c2cn(-c3cncc(CCc4ccc5ccc(N)nc5c4)c3)c3ncnc(N)c23)n1 [Compound I-114] | < 10 nM | > 1000 nM | > 1000 nM | 1000 to 10000 nM | – |
| CCc1cc(NCCOC)c2ccc(CCc3cncc(-n4cc(-c5ccn(C)n5)c5c(N)ncnc54)c3)cc2n1 [Compound I-115] | < 10 nM | > 1000 nM | – | < 1000 nM | > 1000 nM |
| CNc1ccc2ccc(CCc3cncc(-n4cc(F)c5c(N)ncnc54)c3)cc2n1 [Compound I-116] | < 10 nM | > 1000 nM | > 1000 nM | 1000 to 10000 nM | – |
| CCc1cc(N(C)CCOC)c2ccc(CCc3cncc(-n4cc(-c5ccn(C)n5)c5c(N)ncnc54)c3)cc2n1 [Compound I-117] | < 10 nM | > 1000 nM | – | < 1000 nM | > 1000 nM |
| CCc1cc(N2CCC(F)(F)CC2)c2ccc(OCc3cncc(-n4ccc5c(N)ncnc54)c3)cc2n1 [Compound I-118] | < 10 nM | > 1000 nM | > 1000 nM | 1000 to 10000 nM | – |
| CNc1ccc2ccc(OCc3cncc(-n4cc(C(C)C5CC5)c5c(N)ncnc54)c3)cc2n1 (centres unmarked) [Compound I-120] | < 10 nM | > 1000 nM | > 1000 nM | 1000 to 10000 nM | – |
| CCc1cc(N2CCNCC2)c2ccc(OCc3cncc(-n4cc(-c5ccn(C)n5)c5c(N)ncnc54)c3)cc2n1 [Compound I-121] | < 10 nM | > 1000 nM | > 1000 nM | < 1000 nM | – |
| CCc1cc(NC)c2ccc(CCc3cncc(-n4cc(-c5ccn(C)n5)c5c(N)ncnc54)c3)cc2n1 [Compound I-122] | < 10 nM | > 1000 nM | > 1000 nM | < 1000 nM | – |
| Cn1ccc(-c2cn(-c3cncc(CCc4ccc5cc(Br)c(N)nc5c4)c3)c3ncnc(N)c23)n1 [Compound I-123] | > 1000 nM | > 1000 nM | > 1000 nM | 1000 to 10000 nM | – |
| C[C@@H]1CCN1c1ccc2ccc(OCc3cncc(-n4cc(C5CCCC5)c5c(N)ncnc54)c3)cc2n1 [Compound I-124] | 10 to 100 nM | > 1000 nM | > 1000 nM | 1000 to 10000 nM | – |
| Nc1ncnc2c1c(C1CCCO1)cn2-c1cncc(CCc2ccc3ccc(N4CCC4)nc3c2)c1 (centres unmarked) [Compound I-126] | < 10 nM | > 1000 nM | > 1000 nM | 1000 to 10000 nM | – |
| CCc1cc(NCCCN(C)C)c2ccc(CCc3cncc(-n4ccc5c(N)ncnc54)c3)cc2n1 [Compound I-127] | < 10 nM | > 1000 nM | > 1000 nM | ≥ 10000 nM | – |
| CCNc1ccc2ccc(OCc3cncc(-n4cc(-c5ccn(C)n5)c5c(N)ncnc54)c3)cc2n1 [Compound I-128] | < 10 nM | > 1000 nM | > 1000 nM | 1000 to 10000 nM | – |
| CNc1ccc2ccc(OCc3cncc(-n4cc(-c5ccc(C)o5)c5c(N)ncnc54)c3)cc2n1 [Compound I-234] | < 10 nM | > 1000 nM | > 1000 nM | 1000 to 10000 nM | – |
| CNc1ccc2ccc(OCc3cncc(-n4cc(-c5ncco5)c5c(N)ncnc54)c3)cc2n1 [Compound I-235] | < 10 nM | > 1000 nM | > 1000 nM | ≥ 10000 nM | – |
